Legend:
Type in all cases: cell-based
[1] = tested on: E. faecalis; test: Bacteriostatic screening (growth, OD630) against E. faecalis; conditions: for IC50: 24 h, IC50 generated when inhibition at 250 μM was higher than 80%; for inhibition rate (%) EF: at 250 μM of the tested compound
Procedure: (§1) The strategy in this study was to submit these synthesized compounds to a preliminary screening test against E. coli, S. aureus and E. faecalis (ciprofloxacin was used as a reference compound; see Table 1). […] The tested compound or ciprofloxacin (positive drug) was dissolved in DMSO and diluted with LB liquid medium into a stock solution containing 20% DMSO before use; the stock solution of the carrier was 20% DMSO in LB liquid medium. All the experiments, including blank controls, were performed in triplicate. Bacteriostatic screening was performed by applying a modified protocol of the National Committee on Clinical Laboratory Standards (NCCLS).[29] Briefly, E. coli, S. aureus and E. faecalis cells (American Type Culture Collection, ATCC) were grown in LB plate medium for one passage, then seeded in LB liquid medium and cultured at 37 °C for 12 h. After being diluted 1000 times, 190 μL diluted cells were aliquoted to 96-well plates; then, 10 μL stock solution of carrier or a gradient amount of the tested compound or the positive compound, ciprofloxacin, were added; the final concentration of DMSO was 1% in all wells. The blank controls contained 1% DMSO and LB medium but no bacterial cells.

[2] = tested on: S. aureus; test: Bacteriostatic screening (growth, OD630) against S. aureus; conditions: for inhibition rate (%) SA: at 250 μM of the tested compound; for inhibition rate SA (symbol /): at 250 μM of tested compound
Procedure: as §1

[3] = tested on: E. coli; test: Bacteriostatic screening (growth, OD630) against E. coli; conditions: for inhibition rate EC (symbol /): at 250 μM of tested compound; for inhibition rate (%) EC: at 250 μM of the tested compound
Procedure: as §1

C=C1CCC2C3(C)COC(C)(C)OC3CCC2(C)C1CC=C1C(=O)OCC1Oc1ccc([N+](=O)[O-])cc1C(=O)OC (stereo not drawn) [5a1, (14α)-(2′-Carboxymethyl ester-4′-nitro)phenoxy-3,19-acetonylidene andrographolide]
IC50 [1]: 51.2 ± 11.6 µM | inhibition rate (%) SA ([2]; 250 µM): (14) % | inhibition rate EC (symbol /) [3]: / (“/”represents no inhibition or lower than 10% inhibition rate at 250 μM of tested compound)

C=C1CCC2C3(C)COC(C)(C)OC3CCC2(C)C1CC=C1C(=O)OCC1Oc1ccc([N+](=O)[O-])cc1OC (stereo not drawn) [5a3, (14α)-(2′-Methoxy-4′-nitro)phenoxy-3,19-acetonylidene andrographolide]
inhibition rate (%) EF ([1]; 250 µM): (60) % | inhibition rate (%) SA ([2]; 250 µM): (18) % | inhibition rate (%) EC [3]: (21) %

C=C1CCC2C3(C)COC(C)(C)OC3CCC2(C)C1CC=C1C(=O)OCC1Oc1ccc([N+](=O)[O-])c(F)c1 (stereo not drawn) [5a4, (14α)-(3′-Fluoro-4′-nitro)phenoxy-3,19-acetonylidene andrographolide]
inhibition rate (%) EF [1]: (46) % | inhibition rate SA (symbol /) [2]: / (“/”represents no inhibition or lower than 10% inhibition rate at 250 μM of tested compound) | inhibition rate EC (symbol /) [3]: / (“/”represents no inhibition or lower than 10% inhibition rate at 250 μM of tested compound)

C=C1CCC2C3(C)COC(C)(C)OC3CCC2(C)C1CC=C1C(=O)OCC1Oc1ccc([N+](=O)[O-])c(OC)c1 (stereo not drawn) [5a5, (14α)-(3′-Methoxy-4′-nitro)phenoxy-3,19-acetonylidene andrographolide]
inhibition rate (%) EF ([1]; 250 µM): (73) % | inhibition rate (%) SA ([2]; 250 µM): (10) % | inhibition rate (%) EC ([3]; 250 µM): (12) %

C=C1CCC2C3(C)COC(C)(C)OC3CCC2(C)C1CC=C1C(=O)OCC1Oc1ccccc1C(=O)OCC (stereo not drawn) [5a8, (14α)-(2′-Carboxyethyl ester)phenoxy-3,19-acetonylidene andrographolide]
inhibition rate (%) EF [1]: (33) % | inhibition rate (%) SA [2]: (20) % | inhibition rate (%) EC [3]: (32) %

C=C1CCC2C3(C)COC(C)(C)OC3CCC2(C)C1CC=C1C(=O)OCC1Oc1ccc(C(=O)OCC)cc1 (stereo not drawn) [5a9, (14α)-(4′-Carboxyethyl ester)phenoxy-3,19-acetonylidene andrographolide]
inhibition rate (%) EF [1]: (45) % | inhibition rate (%) SA [2]: (10) % | inhibition rate EC (symbol /) [3]: / (“/”represents no inhibition or lower than 10% inhibition rate at 250 μM of tested compound)

C=C1CCC2C3(C)COC(C)(C)OC3CCC2(C)C1CC=C1C(=O)OCC1Oc1ccccc1OC (stereo not drawn) [5a12, (14α)-(2′-Methoxy)phenoxy-3,19-acetonylidene andrographolide]
inhibition rate (%) EF ([1]; 250 µM): (49) % | inhibition rate SA (symbol /) [2]: / (“/”represents no inhibition or lower than 10% inhibition rate at 250 μM of tested compound) | inhibition rate EC (symbol /) [3]: / (“/”represents no inhibition or lower than 10% inhibition rate at 250 μM of tested compound)

C=C1CCC2C3(C)COC(C)(C)OC3CCC2(C)C1CC=C1C(=O)OCC1Oc1cccnc1[N+](=O)[O-] (stereo not drawn) [5a15, (14α)-(2′-Nitro-pyridinyl-3′-oxy)-3,19-acetonylidene andrographolide]
IC50 [1]: 25.5 ± 1.5 µM | inhibition rate (%) SA ([2]; 250 µM): (11) % | inhibition rate (%) EC [3]: (13) %

C=C1CCC2C3(C)COC(C)(C)OC3CCC2(C)C1CC=C1C(=O)OCC1Oc1ccnc2ccccc12 (stereo not drawn) [5a16, (14α)-(Quinolyl-4′-oxy)-3,19-acetonylidene andrographolide]
IC50 [1]: 16.9 ± 5.9 µM | inhibition rate (%) SA [2]: (14) % | inhibition rate EC (symbol /) [3]: / (“/”represents no inhibition or lower than 10% inhibition rate at 250 μM of tested compound)

C=C1CCC2C3(C)COC(C)(C)OC3CCC2(C)C1CC=C1C(=O)OCC1Oc1ccc([N+](=O)[O-])cc1C(=O)OC (stereo not drawn) [5b1, (14β)-(2′-Carboxymethyl ester-4′-nitro)phenoxy-3,19-acetonylidene andrographolide]
inhibition rate (%) EF [1]: (56) % | inhibition rate (%) SA ([2]; 250 µM): (20) % | inhibition rate (%) EC [3]: (22) %

C=C1CCC2C3(C)COC(C)(C)OC3CCC2(C)C1CC=C1C(=O)OCC1Oc1ccc([N+](=O)[O-])cc1F (stereo not drawn) [5b2, (14β)-(2′-Fluoro-4′-nitro)phenoxy-3,19-acetonylidene andrographolide]
inhibition rate (%) EF [1]: (56) % | inhibition rate (%) SA [2]: (26) % | inhibition rate (%) EC [3]: (11) %

C=C1CCC2C3(C)COC(C)(C)OC3CCC2(C)C1CC=C1C(=O)OCC1Oc1ccc([N+](=O)[O-])cc1OC (stereo not drawn) [5b3, (14β)-(2′-Methoxy-4′-nitro)phenoxy-3,19-acetonylidene andrographolide]
inhibition rate (%) EF ([1]; 250 µM): (19) % | inhibition rate (%) SA ([2]; 250 µM): (16) % | inhibition rate EC (symbol /) [3]: / (“/”represents no inhibition or lower than 10% inhibition rate at 250 μM of tested compound)

C=C1CCC2C3(C)COC(C)(C)OC3CCC2(C)C1CC=C1C(=O)OCC1Oc1ccc([N+](=O)[O-])c(OC)c1 (stereo not drawn) [5b5, (14β)-(3′-Methoxy-4′-nitro)phenoxy-3,19-acetonylidene andrographolide]
inhibition rate (%) EF ([1]; 250 µM): (34) % | inhibition rate (%) SA ([2]; 250 µM): (32) % | inhibition rate (%) EC ([3]; 250 µM): (18) %

C=C1CCC2C3(C)COC(C)(C)OC3CCC2(C)C1CC=C1C(=O)OCC1Oc1cccc([N+](=O)[O-])c1 (stereo not drawn) [5b7, (14β)-(3′-Nitro)phenoxy-3,19-acetonylidene andrographolide]
inhibition rate EF (symbol /) ([1]; at 250 μM of tested compound): / (“/”represents no inhibition or lower than 10% inhibition rate at 250 μM of tested compound) | inhibition rate SA (symbol /) [2]: / (“/”represents no inhibition or lower than 10% inhibition rate at 250 μM of tested compound) | inhibition rate EC (symbol /) [3]: / (“/”represents no inhibition or lower than 10% inhibition rate at 250 μM of tested compound)

C=C1CCC2C3(C)COC(C)(C)OC3CCC2(C)C1CC=C1C(=O)OCC1Oc1ccc(OC)cc1 (stereo not drawn) [5b11, (14β)-(4′-Methoxy)phenoxy-3,19-acetonylidene andrographolide]
inhibition rate (%) EF [1]: (39) % | inhibition rate SA (symbol /) [2]: / (“/”represents no inhibition or lower than 10% inhibition rate at 250 μM of tested compound) | inhibition rate EC (symbol /) [3]: / (“/”represents no inhibition or lower than 10% inhibition rate at 250 μM of tested compound)

C=C1CCC2C3(C)COC(C)(C)OC3CCC2(C)C1CC=C1C(=O)OCC1Oc1ccccc1OC (stereo not drawn) [5b12, (14β)-(2′-Methoxy)phenoxy-3,19-acetonylidene andrographolide]
inhibition rate (%) EF ([1]; 250 µM): (52) % | inhibition rate (%) SA [2]: (24) % | inhibition rate EC (symbol /) [3]: / (“/”represents no inhibition or lower than 10% inhibition rate at 250 μM of tested compound)

C=C1CCC2C3(C)COC(C)(C)OC3CCC2(C)C1CC=C1C(=O)OCC1Oc1cccc(OC)c1 (stereo not drawn) [5b13, (14β)-(3′-Methoxy)phenoxy-3,19-acetonylidene andrographolide]
inhibition rate (%) EF [1]: (17) % | inhibition rate SA (symbol /) [2]: / (“/”represents no inhibition or lower than 10% inhibition rate at 250 μM of tested compound) | inhibition rate EC (symbol /) [3]: / (“/”represents no inhibition or lower than 10% inhibition rate at 250 μM of tested compound)

C=C1CCC2C3(C)COC(C)(C)OC3CCC2(C)C1CC=C1C(=O)OCC1Oc1cccc2ccccc12 (stereo not drawn) [5b14, (14β)-(Naphthyl-1′-oxy)-3,19-acetonylidene andrographolide]
inhibition rate (%) EF [1]: (47) % | inhibition rate SA (symbol /) [2]: / (“/”represents no inhibition or lower than 10% inhibition rate at 250 μM of tested compound) | inhibition rate EC (symbol /) [3]: / (“/”represents no inhibition or lower than 10% inhibition rate at 250 μM of tested compound)

Source: article PMC9078697, “Discovery and preliminary SAR of 14-aryloxy-andrographolide derivatives as antibacterial agents with immunosuppressant activity” (RSC Advances, 2018)
